The values that follow come from patent publication US8173689B2 (Novartis AG, priority 2006, dated 2012).

For test [1], the target named is T1, cytoplasmic domain of the human CSF-1R (Homo sapiens, UniProt P07333).
T1 construct: Recombinant protein corresponding to the cytoplasmic domain of the human CSF-1R; purchased Invitrogen Corporation, Carlsbad, Calif; PV3249
T1 sequence (P07333 539-972 limits assumed): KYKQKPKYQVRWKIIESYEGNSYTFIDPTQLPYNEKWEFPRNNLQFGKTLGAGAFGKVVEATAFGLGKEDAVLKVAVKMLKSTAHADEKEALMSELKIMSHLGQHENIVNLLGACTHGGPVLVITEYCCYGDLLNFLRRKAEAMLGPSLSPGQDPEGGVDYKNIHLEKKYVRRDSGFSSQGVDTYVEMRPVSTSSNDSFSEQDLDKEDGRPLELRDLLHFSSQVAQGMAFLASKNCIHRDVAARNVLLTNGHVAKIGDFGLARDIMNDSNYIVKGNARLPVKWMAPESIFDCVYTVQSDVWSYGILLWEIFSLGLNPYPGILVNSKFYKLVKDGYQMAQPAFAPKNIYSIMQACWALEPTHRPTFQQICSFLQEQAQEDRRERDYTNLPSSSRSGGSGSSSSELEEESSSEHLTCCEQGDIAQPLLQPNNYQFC
The test can be described thus: In vitro kinase assay for colony stimulating factor-1 receptor (AlphaScreen). The test is classed as biochemical. Conditions: tested at about 1 μM, read-out: CSF-1R percent inhibition. Here is the method: The kinase activity of various protein tyrosine kinases can be measured by providing ATP and a suitable peptide or protein tyrosine-containing substrate, and assaying the transfer of phosphate moiety to the tyrosine residue. Recombinant protein corresponding to the cytoplasmic domain of the human CSF-1R was purchased from Invitrogen Corporation, Carlsbad, Calif. U.S.A. (#PV3249). For each assay, test compounds were serially diluted, starting at 25 μM with 3 fold dilutions, in DMSO in 384 well plates then mixed with an appropriate kinase reaction buffer consisting of 50 mM Hepes, 5 mM MgCl2, 10 mM MnCl2, 0.1% BSA, pH 7.5, 1.0 mM dithiothreitol, 0.01% Tween 80 plus 1 μM ATP. […] Added to the stopped reaction mix was 30 μL of PT66 Alphascreen beads (Perkin Elmer, Boston, Mass., U.S.A.). The reaction was incubated overnight and read on the Envision (Perkin Elmer). Phosphorylated peptide product was measured with the AlphaScreen system (Perkin Elmer) using acceptor beads coated with anti-phosphotyrosine antibody PT66 and donor beads coated with streptavidin that emit a fluorescent signal at the 520-620 nm emission wave length if in close proximity.
CSF-1R kinase was added at final concentration of 4 nM.

In a further test the target is T2, kinase domain of cKIT (Homo sapiens, UniProt P10721).
T2 construct: The kinase domain of cKIT was assayed in 50 mM Hepes; purchased Upstate 14-559
The test can be described thus: Inhibition of cKIT kinase signaling in an in vitro biochemical assay (alphascreen). Conditions: tested at about 1 μM, read-out: cKit percent inhibition. Here is the method:
(§1) The IC50 values for the inhibition of RTKs were determined in the alphascreen format measuring the inhibition by compound of phosphate transfer to a substrate by the respective enzyme. Briefly, the respective RTK domain purchased as human recombinant protein (cKIT Upstate #14-559, PDGFRb Invitrogen #P3082) were incubated with serial dilutions of compound in the presence of substrate and ATP concentrations within 3 times the Km of the enzyme.
(§2) Alphascreen PY20 beads were added to the stopped cKIT reactions and PY20 Ab/Protein A Alphascreen beads were added to the PDGFRβ stopped reactions. Both reactions were incubated overnight and read on the Alphascreen reader.

A further test deals with T3, kinase domain of PDGFRβ (Homo sapiens, UniProt P09619).
T3 construct: The kinase domain of PDGFRβ was assayed in 50 mM Hepes; purchased Invitrogen P3082
The test can be described thus: Inhibition of PDGFRb kinase signaling in an in vitro biochemical assay (alphascreen). Conditions: tested at about 1 μM, read-out: PDGFRβ percent inhibition. The protocol:
as §1, §2

Like-named read-outs stand apart in the source and are kept apart here.

T3 sequence (P09619 600-962 limits assumed): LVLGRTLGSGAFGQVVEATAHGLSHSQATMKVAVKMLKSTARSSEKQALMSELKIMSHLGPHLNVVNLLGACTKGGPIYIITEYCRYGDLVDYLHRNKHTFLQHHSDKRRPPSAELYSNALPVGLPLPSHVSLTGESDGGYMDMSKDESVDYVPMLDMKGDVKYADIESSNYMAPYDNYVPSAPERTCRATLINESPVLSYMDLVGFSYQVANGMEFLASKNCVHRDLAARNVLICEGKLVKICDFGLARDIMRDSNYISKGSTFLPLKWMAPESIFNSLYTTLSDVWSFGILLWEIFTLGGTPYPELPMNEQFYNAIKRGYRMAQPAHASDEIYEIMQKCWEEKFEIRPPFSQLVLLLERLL
T2 sequence (P10721 589-937 limits assumed): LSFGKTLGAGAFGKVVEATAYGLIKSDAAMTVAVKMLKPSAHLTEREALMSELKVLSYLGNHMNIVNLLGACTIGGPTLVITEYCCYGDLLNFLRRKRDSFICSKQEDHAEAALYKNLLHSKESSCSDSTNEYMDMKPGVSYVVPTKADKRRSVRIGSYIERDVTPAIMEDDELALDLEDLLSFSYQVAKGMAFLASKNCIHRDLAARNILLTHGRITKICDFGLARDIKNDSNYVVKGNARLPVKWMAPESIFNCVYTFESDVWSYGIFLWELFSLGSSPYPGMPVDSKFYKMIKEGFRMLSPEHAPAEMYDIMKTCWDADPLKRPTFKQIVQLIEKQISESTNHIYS

Consider `c1cc(Oc2ccc3nc(NCC4CCCCC4)oc3c2)cc(-c2nnco2)n1` [Compound 81, Cyclohexylmethyl-[6-(2-[1,3,4]oxadiazol-2-yl-pyridin-4-yloxy)-benzooxazol-2-yl]-amine], for which the values for the inhibition at 1 µM (in test [1]; on kinase domain of cKIT; on kinase domain of PDGFRβ) were 54%, 16% and 0%, respectively.
For `CNC(=O)c1cc(Oc2ccc3nc(N[C@H]4CCCC[C@H]4NC(=O)CC(C)C)sc3c2)ccn1` [Example 311, N-methyl-4-(2-((1S,2R)-2-(3-methylbutyanamido)cyclo-hexylamino)benzo[d]thiazol-6-yloxy)picolinamide], in that order: 93%, 22% and 88%.
Taken in the same sequence, the figures for `CNC(=O)c1cc(Oc2ccc3nc(N[C@@H](C(=O)OC)c4ccccc4)oc3c2)ccn1` [Compound 53, (R)-[6-(2-Methylcarbamoyl-pyridin-4-yloxy)-benzooxazol-2-ylamino]-phenyl-acetic acid methyl ester] were 95%, 21% and 0%.
With `O[C@@H]1CCCC[C@H]1Nc1nc2ccc(Oc3ccnc(C4=CCNCC4)c3)cc2s1` [Compound 161], the values for the inhibition at 1 µM (in test [1] (compounds of Table 3); at kinase domain of cKIT (compounds of Table 3); on kinase domain of PDGFRβ (compounds of Table 3)) were 54%, 20% and 26%, respectively.
As for `CNC(=O)c1cc(Oc2ccc3nc(N[C@H]4CCN(C(C)=O)C4)sc3c2)ccn1` [Example 305, (S)-4-(2-(1-acetylpyrrolidin-3-ylamino)benzo[d]thiazol-6-yloxy)-N-methylpicolinamide], the inhibition at 1 µM in test [1] turned out to be 87%; on kinase domain of cKIT, 15%; on kinase domain of PDGFRβ, 7%.
Taken in the same sequence, the figures for `CNC(=O)c1cc(Oc2ccc3nc(NC(C)(C)C)oc3c2)ccn1` [Compound 100, 4-(2-tert-Butylamino-benzo-oxazol-6-yloxy)-pyridine-2-carboxylic acid methylamide] were 99%, 10% and 9%.
In the case of `CNC(=O)c1cc(Oc2ccc3nc(NCC(O)COC)sc3c2)ccn1` (stereo not drawn) [Compound 127], the inhibition at 1 µM was 95% in test [1] (compounds of Table 3), 0% on kinase domain of cKIT (compounds of Table 3) and 0% at kinase domain of PDGFRβ (compounds of Table 3).
`O[C@@H]1CCCC[C@H]1Nc1nc2ccc(Oc3ccnc(Cl)c3)cc2s1` [Example 225, (1R,2R)-2-(6-(2-chloropyridin-4-yloxy)benzo[d]thiazol-2-ylamino)cyclohexanol]: the inhibition at 1 µM is 90% in test [1] (compounds of Table 3), 21% at kinase domain of cKIT (compounds of Table 3) and 0% at kinase domain of PDGFRβ (compounds of Table 3).
Turning to `Cn1cc(-c2cc(Oc3ccc4nc(NC5CCCCCC5)sc4c3)ccn2)cn1` [Example 364, N-cycloheptyl-6-(2-(1-methyl-1H-pyrazol-4-yl)pyridin-4-yloxy)benzo[d]thiazol-2-amine], the inhibition at 1 µM (in test [1]; on kinase domain of cKIT; on kinase domain of PDGFRβ) was 100% in each case.
As to `CNC(=O)c1cc(Oc2ccc3nc(N[C@@H](C(=O)NC)C4CCCCC4)oc3c2)ccn1` [Compound 62, 4-{2-[((R)-Cyclohexyl-methylcarbamoyl-methyl)-amino]-benzooxazol-6-yloxy}-pyridine-2-carboxylic acid methylamide], the values for the inhibition at 1 µM (in test [1]; on kinase domain of cKIT; at kinase domain of PDGFRβ) were 19%, 7% and 5%, respectively.
For `CNC(=O)c1cc(Oc2ccc3nc(Nc4ccc5c(c4)OCO5)oc3c2)ccn1` [Compound 95, 4-[2-(Benzo[1,3]dioxol-5-yl-amino)-benzooxazol-6-yloxy]-pyridine-2-carboxylic acid methylamide], in that order: 98%, 40% and 8%.
Taken in the same sequence, the figures for `CNC(=O)c1cc(Oc2ccc3nc(N[C@@H]4CCCN(C(C)=O)C4)sc3c2)ccn1` [Example 302, (R)-4-(2-(1-acetylpiperidin-3-ylamino)benzo[d]thiazol-6-yloxy)-N-methylpicolinamide] were 68%, 20% and 0%.
Consider `CNC(=O)c1cc(Oc2ccc3nc(NC[C@H](C)O)sc3c2)ccn1` [Compound 100], for which the inhibition at 1 µM in test [1] (compounds of Table 3) was 81%; on kinase domain of cKIT (compounds of Table 3), 0%; at kinase domain of PDGFRβ (compounds of Table 3), 6%.
Consider `N#Cc1cc(Oc2ccc3nc(N[C@@H]4CCCC[C@H]4O)sc3c2)ccn1` [Example 226, 4-(2-((1R,2R)-2-hydroxycyclohexylamino)benzo[d]thiazol-6-yloxy)picolinonitrile], for which the inhibition at 1 µM in test [1] (compounds of Table 3) came to 80%; on kinase domain of cKIT (compounds of Table 3), 20%; at kinase domain of PDGFRβ (compounds of Table 3), 0%.
`CNC(=O)c1cc(Oc2ccc3nc(N[C@@H](C(=O)NC)c4ccccc4)oc3c2)ccn1` [Compound 36, 4-{2-[((R)-Methylcarbamoyl-phenyl-methyl)-amino]-benzo-oxazol-6-yloxy}-pyridine-2-carboxylic acid methylamide]: the inhibition at 1 µM in test [1] worked out at 78%; on kinase domain of cKIT, 0%; at kinase domain of PDGFRβ, 6%.
On to `CNC(=O)c1cc(Oc2ccc3nc(N[C@@H]4CCCC[C@H]4NC(=O)C(C)C)sc3c2)ccn1` [Example 327, 4-(2-((1R,2R)-2-isobutyramidocyclohexyl-amino)benzo[d]thiazol-6-yloxy)-N-methylpicolinamide], for which the inhibition at 1 µM was determined as 47% in test [1], 6% on kinase domain of cKIT and 0% at kinase domain of PDGFRβ.
Consider `CNC(=O)c1cc(Oc2ccc3nc(NC4CCCC(N)C4)sc3c2)ccn1` (stereo not drawn) [Example 294, 4-(2-(3-aminocyclohexylamino)benzo[d]thiazol-6-yloxy)-N-methylpicolinamide], for which the results for the inhibition at 1 µM (in test [1] (compounds of Table 3); at kinase domain of cKIT (compounds of Table 3); at kinase domain of PDGFRβ (compounds of Table 3)) were 87%, 1% and 0%, respectively.
Taken in the same sequence, the figures for `Cn1nccc1-c1cnccc1Oc1ccc2nc(N[C@@H]3CCCC[C@H]3O)sc2c1` [Example 191] were 45%, 19% and 15%.
With `CNC(=O)c1cc(Oc2ccc3nc(N[C@@H]4CCCC[C@H]4OCc4ccccc4)sc3c2)ccn1` [Compound 155, 4-[2-((1R,2R)-2-Benzyloxy-cyclohexylamino)-benzothiazol-6-yloxy]-pyridine-2-carboxylic acid methylamide], the figures for the inhibition at 1 µM (in test [1]; at kinase domain of cKIT; on kinase domain of PDGFRβ) were 87%, 0% and 8%, respectively.
For `CNC(=O)c1cc(Oc2ccc3nc(N[C@H](CCO)c4ccccc4)oc3c2)ccn1` [Compound 51, 4-[2-((R)-3-Hydroxy-1-phenyl-propylamino)-benzooxazol-6-yloxy]-pyridine-2-carboxylic acid methylamide], in that order: 95%, 40% and 2%.
In the case of `CNC(=O)c1cc(Oc2ccc3nc(NC[C@@H](C)O)sc3c2)ccn1` [Compound 99], the inhibition at 1 µM in test [1] (compounds of Table 3) turned out to be 86%; on kinase domain of cKIT (compounds of Table 3), 0%; at kinase domain of PDGFRβ (compounds of Table 3), 0%.
On to `CNC(=O)c1cc(Oc2ccc3nc(N[C@H]4CCCC[C@H]4NC(=O)C(C)C)sc3c2)ccn1` [Example 310, 4-(2-((1S,2R)-2-isobutyramidocyclohexyl-amino)benzo[d]thiazol-6-yloxy)-N-methylpicolinamide], for which the inhibition at 1 µM in test [1] stood at 15%; on kinase domain of cKIT, 13%; at kinase domain of PDGFRβ it was 13%.
